System: cells of the human continuous cell line A549
Format: cell-based
Details: 24 h
From the text: The mass spectrometer 101 used was a non-spatial-resolution MALDI-ToF. Also, the matrix 29 was not true-to-position applied. Thus, the mass spectra 20 represent sum spectra of an entire sample spot 16 and have not been generated according to the invention. In addition, the mass spectra 20 are not spatially resolved. It is intended here, among other things, to clarify the cell-specific mass spectrometric signals 40, the cell-specific mass spectrometric signatures 41, the non-cell-specific mass spectrometric signals 55 and a possible determination of reference values. In particular, the mass spectrum 20 in FIG. 11 (b) is only an approximate example here, since a small residual number of animal cells 23, which were already present before the cultivation step S2 (cell seed), can generate largely weak cell-specific mass spectrometric signals 40. […] The animal cells 23 are cells of the continuous human cell line A549. The complex culture medium DMEN with 10% fetal calf serum (FCS) was used as culture medium. […]
The animal cells 23 are also cells of the human continuous cell line A549. […] Since this example is a sum mass spectrum of the entire sample spot 16 not according to the invention, sporadic weak cell-specific mass spectrometric signals 40 may be detected in this example, which are largely absent when using a spatial resolution mass spectrometer 1. […]

SMILES: CCCCCCCCCCCCCC[N+](C)(C)C.[Cl-] [tetradecyltrimethylammonium chloride]
- proliferation of the animal cells in the presence of the cytotoxic factor: no proliferation of the animal cells 23 occurred

From patent US20230417738A1, “Mass Spectrometric Determination of Cell Toxicity” (Bruker Daltonics GmbH & Co. KG, priority 2022, published 2023)
